Experimental data taken from patent publication US9145381B2, “Derivative of [(3-hydroxy-4-pyron-2-yl)-methyl]-amine and use thereof as anti-neoplastic drugs” (Universita' Degli Studi Di Urbino, priority 2008, dated 2015).

Tests used:
Format in all cases: cell-based
[1] = system: all tested tumour cell lines (U937, NB4, HL-60, JURKAT, U-373MG, HeLa, H-28, RH-4); test: Antiproliferative activity, Trypan blue viability; conditions: range over the tested cell lines, 72 hours, read-out: IC50 values in the different tested cell lines
Experimental: In order to evaluate the ability of these compounds to inhibit the proliferation of tumour cells in vitro, eight cell lines were selected, four deriving from haematopoietic tumours and four deriving from solid tumours. […] Each cell line has been grown in the appropriate growth medium at 37° C. […] The hematopoietic populations were diluted with preheated growth medium at 37° C. at a concentration of 1×10^5 cells/ml and aliquots of 2 ml were aliquoted in each single well of 6-well plates. The adhering cells were trypsinized, diluted with preheated growth medium at 37° C. and 0.5×10^5 cells were aliquoted in each single well of 6-well plates. […] Both compounds were diluted in distilled water and the treatments were repeated every 24 hours.

[2] = system: tumour cell lines; test: Cell cycle and apoptosis, propidium iodide cytofluorimetric analysis; conditions: 72 hour treatment; for interruption of the cell cycle: tested tumour cell lines in general, different concentrations
Experimental: (§1) FIG. 5: Apoptosis induced by L1 after treatment for 72 hours at a concentration of 50 μM. FIGS. 6-13: Effects of L1 on the percentages of the different phases of the cell cycle after a 72 hour treatment at different concentrations. FIG. 14: Apoptosis induced by L9 after a 72 hour treatment at a concentration of 5 μM. FIGS. 15-22: Effects of L9 on the percentages of the different phases of the cell cycle after a 72 hour treatment at different concentrations.
(§2) The effects of L1 and L9 on the progression of the cell cycle and on its hypothetical ability to induce the apoptotic process were evaluated by cytofluorimetric analysis by means of propidium iodide staining of all of the previously tested cell lines. Cell treated with different concentrations of the two compounds, as previously disclosed, have been harvested and washed with cold phosphate buffer (1×PBS). The cells were resuspended in cold 70% ethanol and fixed at +4° C. for 24 hours. All of the samples were then centrifuged at 1300 rpm at +4° C. for 3 minutes and then resuspended in a solution containing propidium iodide (1×PBS; 0.1% Triton X-100, 0.1% sodium citrate, 250 μg/ml RNasi A, 50 μg/ml propidium iodide) and, after 24 hours of incubation at +4° C., a minimum of 1×10^4 events were acquired at the BD FACScan cytofluorimeter (BD Biosciences, San Jose, Calif., USA). The acquisitions were analysed by a FlowJo 5.7.2 software (Tree Star, Inc., Ashland, Oreg., USA) in order to determine the percentage of cells in different phases of the cell cycle and displaying hypoploid conditions (Apoptotic cells). The induction of programmed cell death was computed as the difference between the percentage of hypodiploid cells in treated and non-treated samples.

[3] = system: H-28 cells; test: Cell cycle, propidium iodide cytofluorimetric analysis; conditions: H-28, 72 hour treatment
Experimental: as §1, §2

[4] = system: HL-60 cells; test: as above; conditions: HL-60 (printed H1-60 / JL-60), 72 hour treatment
Experimental: as §1, §2

[5] = system: HeLa cells; test: as above; conditions: 72 hour treatment
Experimental: as §1, §2

[6] = system: JURKAT cells; test: as above; conditions: 72 hour treatment
Experimental: as §1, §2

[7] = system: U937 cells; test: Fragmentation of genomic DNA, agarose gel electrophoresis; conditions: U937, 72 hours; L1 25, 50, 100 μM; L9 2.5, 5, 10 μM
Experimental: The cells were treated for 72 hours with L1 and L9 at the concentrations shown in the Figure, the genomic DNA was then extracted, separated on a 2% agarose gel and stained with ethidium bromide.
The induction of apoptosis by compounds L1 and L9 has further been confirmed with the analysis of the fragmentation of the genomic DNA carried out by electrophoresis on an agarose gel. U937 cells treated with L1 (non-treated as a control) at concentrations of 25, 50, 100 μM and L9 at concentrations of 2.5, 5, 10 μM for 72 hours were harvested (about 2×10^6 cells), washed with cold 1×PBS and incubated in 2 ml of 1×TBS, 0.5% Tween20, 1 mM EDTA for 30 minutes at +4° C. After being centrifuged at 1200 rpm, for 5 minutes at +4° C., the cells were incubated in 0.5 ml of a solution at 0.1% SDS for 30 minutes at room temperature. The genomic DNA was then extracted by using a QIAquick Gel Extraction Kit (Qiagen, Hilden, Germany), electrophoretically separated by means of a 2% agarose gel and stained with ethidium bromide.

[8] = system: HeLa cells (uterine cervix cancer); test: Antiproliferative activity, Trypan blue viability; conditions: 72 hours, treatments repeated every 24 hours, maximum over the lines
Experimental: (§3) FIGS. 3 and 4 show a diagram with the inhibiting concentrations (IC50) of L1 (FIG. 3) and L9 (FIG. 4) in different tumour cell lines. Cells in an exponential growth phase were treated for 72 hours with L1 and L9 and then harvested and stained with Trypan blue in order to determine viability. The values of IC50 have been computed for each compound as the concentration that can determine a 50% reduction in viable cells with respect to a non-treated control.
(§4) In order to evaluate the ability of these compounds to inhibit the proliferation of tumour cells in vitro, eight cell lines were selected, four deriving from haematopoietic tumours and four deriving from solid tumours. The tested hematopoietic lines comprise three myeloid tumour cell lines (U937—acute monocytic leukaemia, NB4—acute promyelocytic leukaemia, HL-60—acute myeloid leukaemia) and a lymphoid tumour cell line (JURKAT—T cell leukaemia), while cell lines deriving from multiform glioblastoma (U-373MG), from uterine cervix cancer (HeLa), from malignant pleural mesothelioma (H-28) and from rhabdomyosarcoma (RH-4) have been used as lines representative of solid tumours. Each cell line has been grown in the appropriate growth medium at 37° C. (RPMI 1640 for the hematopoietic lines and DMEM for the adhering cells deriving from solid tumours—Cambrex, Walkersville, Md., USA) added with 10% FBS, 1% glutamine, 100 IU/ml penicillin, 100 μg/ml streptomycin in a highly humidified atmosphere at 5% CO2. The hematopoietic populations were diluted with preheated growth medium at 37° C. at a concentration of 1×10^5 cells/ml and aliquots of 2 ml were aliquoted in each single well of 6-well plates. The adhering cells were trypsinized, diluted with preheated growth medium at 37° C. and 0.5×10^5 cells were aliquoted in each single well of 6-well plates. The cells in an exponential growth phase were treated with different concentrations of L1 or L9. Both compounds were diluted in distilled water and the treatments were repeated every 24 hours. 72 hours after starting the treatments, cell viability was evaluated by means of Trypan blue staining and the inhibiting concentration (IC50) was computed for each cell line as the concentration allowing to reduce by 50% the number of viable cells, with respect to a non-treated control.

[9] = system: RH-4 cells (rhabdomyosarcoma); test: Antiproliferative activity, Trypan blue viability; conditions: 72 hours, treatments repeated every 24 hours, minimum over the lines
Experimental: as §3, §4

[10] = system: cell lines deriving from solid tumours (U-373MG, HeLa, H-28, RH-4); test: Antiproliferative activity, Trypan blue viability; conditions: cells deriving from solid tumours, 72 hours
Experimental: as §3, §4

[11] = system: hematopoietic cells (U937, NB4, HL-60, JURKAT); test: Antiproliferative activity, Trypan blue viability; conditions: 72 hours
Experimental: as §3, §4

[12] = system: RH-4 cells; test: Cell cycle, propidium iodide cytofluorimetric analysis; conditions: RH-4, 72 hour treatment
Experimental: as §1, §2

IC50 [1] [µM] | IC50 [8] [µM] | IC50 [9] [µM] | IC50 [10] [µM] | IC50 [11] [µM] | Compound | interruption of the cell cycle [2] | block of the cell cycle [3] | block of the cell cycle [4] | block of the cell cycle [5] | block of the cell cycle [6] | fragmentation of genomic DNA [7] | induction of apoptosis (hypodiploid cells) ([2]; tumour cells, propidium iodide) | block of the cell cycle [12]
1.45 to 2.31 |  |  |  |  | CN1CCN(Cc2occc(=O)c2O)CCN(C)CCN(Cc2occc(=O)c2O)CC1 [Compound L9, 4(N),10(N)-bis[(3-hydroxy-4-pyron-2-yl)methyl]-1,7-dimethyl-1,4,7,10-tetraazacyclododecane] | mainly blocked in phase G2 | moderate block in phase G1 | moderate block in phase G1 | stop especially in phase S | stop especially in phase S | concentration-dependent internucleosomic fragmentation |  | 
 | 30.5 | 4.49 | 22 | 10.4 | CN(CCN(C)Cc1occc(=O)c1O)Cc1occc(=O)c1O [Compound L1, N,N′-bis[(3-hydroxy-4-pyron-2-yl)methyl]-N,N′-dimethylethylendiamine] | interrupt the cell cycle of tumour cells in phase S and G2 in a concentration-dependent manner |  | mainly blocked in phase S | mainly blocked in phase S | severe block in G2 | concentration-dependent internucleosomic fragmentation | induce apoptosis | severe block in G2
